Measurements taken from patent publication US6737383B1, “Herbicidal oxadiazolidines” (priority 1999, dated 2004).

How the values were obtained:
wild oat = assay: Test B pre/postemergence wild oat; assay type: in vivo, Avena fatua
Procedure, shortened: (§1)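 Response is a visual 0-to-10 score relative to untreated plants, where 0 means no effect and 10 means complete control, taken twelve to sixteen days after application. Treatments went onto soil at planting and onto foliage of 1- to 4-leaf plants, using a surfactant-containing non-phytotoxic solvent.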

crabgrass = assay: Test B pre/postemergence crabgrass; assay type: in vivo, Digitaria sanguinalis
Procedure, shortened: as §1

soybean = assay: Test B pre/postemergence soybean; assay type: in vivo, Glycine max
Procedure, shortened: as §1

cocklebur = assay: Test B pre/postemergence cocklebur; assay type: in vivo, Xanthium strumarium
Procedure, shortened: as §1

corn = assay: Test B pre/postemergence corn; assay type: in vivo, Zea mays
Procedure, shortened: as §1

bedstraw = assay: Test B pre/postemergence bedstraw; assay type: in vivo, Galium aparine
Procedure, shortened: as §1

rice = assay: Test B flood test rice; assay type: in vivo, Oryza sativa
Procedure, shortened: (§2)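 Each value is a visual injury score relative to controls, with 10 meaning complete control and 0 no effect. Evaluation took place twelve to sixteen days after the 2-leaf-stage plants were treated and kept in the greenhouse.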

blackgrass = assay: Test B pre/postemergence blackgrass; assay type: in vivo, Alopecurus myosuroides
Procedure, shortened: as §1

purple nutsedge = assay: Test B pre/postemergence purple nutsedge; assay type: in vivo, Cyperus rotundus
Procedure, shortened: as §1

smallflower flatsedge = assay: Test B flood test smallflower flatsedge; assay type: in vivo, Cyperus difformis
Procedure, shortened: as §2

pigweed = assay: Test B pre/postemergence pigweed; assay type: in vivo, Amaranthus retroflexus
Procedure, shortened: as §1

velvetleaf = assay: Test B pre/postemergence velvetleaf; assay type: in vivo, Abutilon theophrasti
Procedure, shortened: as §1

bamyardgrass = assay: Test B flood test barnyardgrass; assay type: in vivo, Echinochloa crus-galli
Procedure, shortened: as §2

giant foxtail = assay: Test B pre/postemergence giant foxtail; assay type: in vivo, Setaria faberii
Procedure, shortened: as §1

sugar beet = assay: Test B pre/postemergence sugar beet; assay type: in vivo, Beta vulgaris
Procedure, shortened: as §1

surinam grass = assay: Test B pre/postemergence surinam grass; assay type: in vivo, Brachiaria decumbens
Procedure, shortened: as §1

[1] = Preemergence, Rate 62 g/ha, scale 0 to 10 (0 no effect, 10 complete control)
[2] = Preemergence, Rate 125 g/ha, 0 is no effect, 10 is complete control
[3] = Preemergence, Rate 250 g/ha, scale 0 to 10, 0 is no effect, 10 is complete control
[4] = Preemergence, Rate 500 g/ha, scale 0 to 10 (0 no effect, 10 complete control)
[5] = Rate 250 g/ha, Postemergence, scale 0 to 10, 0 is no effect, 10 is complete control
[6] = Rate 500 g/ha, Postemergence, scale 0 to 10
[7] = Postemergence, Rate 125 g/ha, scale of 0 to 10 where 0 is no effect and 10 is complete control
[8] = Rate 62 g/ha, Postemergence, scale of 0 to 10 where 0 is no effect and 10 is complete control
[9] = Postemergence (flood test species), Rate 125 g/ha, scale of 0 to 10 where 0 is no effect and 10 is complete control
[10] = Rate 62 g/ha, Postemergence section, flood test species, scale of 0 to 10 where 0 is no effect and 10 is complete control
[11] = Rate 250 g/ha, Postemergence (flood test), scale 0 to 10, 0 is no effect, 10 is complete control
[12] = Rate 500 g/ha, listed under Postemergence (flood test species), scale 0 to 10

## C=CCn1c(=O)on(C(=O)N(c2ccc(F)cc2F)C(C)C)c1=O [Compound 151]
Wild oat; [1]
  Wild oats plant response rating: 8
Wild oat; [2]
  Wild oats plant response rating (0 to 10 scale): 9
Wild oat; [3]
  Wild oats plant response rating: 10
Wild oat; [4]
  Wild oats plant response rating: 10
Wild oat; [5]
  Plant response rating, Wild oats: 6
Wild oat; [6]
  Wild oats plant response rating: 8
crabgrass; [7]
  Crabgrass plant response rating: 9
crabgrass; [1]
  Crabgrass plant response rating: 10
crabgrass; [2]
  Crabgrass plant response rating (0 to 10 scale): 10
crabgrass; [3]
  Crabgrass plant response rating: 10
crabgrass; [4]
  Crabgrass plant response rating: 10
crabgrass; [8]
  Crabgrass plant response rating: 8
crabgrass; [5]
  Plant response rating, Crabgrass: 9
crabgrass; [6]
  Crabgrass plant response rating: 9
soybean; [7]
  Soybean plant response rating: 4
soybean; [1]
  Soybean plant response rating: 0
soybean; [2]
  Soybean plant response rating (0 to 10 scale): 0
soybean; [3]
  Soybean plant response rating: 3
soybean; [4]
  Soybean plant response rating: 7
soybean; [8]
  Soybean plant response rating: 3
soybean; [5]
  Plant response rating, Soybean: 4
soybean; [6]
  Soybean plant response rating: 4
cocklebur; [7]
  Cocklebur plant response rating: 0
cocklebur; [1]
  Cocklebur plant response rating: 0
cocklebur; [3]
  Cocklebur plant response rating: 0
cocklebur; [4]
  Cocklebur plant response rating: 0
cocklebur; [8]
  Cocklebur plant response rating: 0
cocklebur; [5]
  Plant response rating, Cocklebur: 2
cocklebur; [6]
  Cocklebur plant response rating: 2
corn; [7]
  Corn plant response rating: 0
corn; [1]
  Corn plant response rating: 0
corn; [2]
  Corn plant response rating (0 to 10 scale): 0
corn; [3]
  Corn plant response rating: 5
corn; [4]
  Corn plant response rating: 9
corn; [8]
  Corn plant response rating: 0
corn; [5]
  Plant response rating, Corn: 2
corn; [6]
  Corn plant response rating: 6
bedstraw; [7]
  Bedstraw plant response rating: 3
bedstraw; [1]
  Bedstraw plant response rating: 0
bedstraw; [2]
  Bedstraw plant response rating (0 to 10 scale): 0
bedstraw; [3]
  Bedstraw plant response rating: 0
bedstraw; [4]
  Bedstraw plant response rating: 0
bedstraw; [8]
  Bedstraw plant response rating: 3
bedstraw; [5]
  Plant response rating, Bedstraw: 4
bedstraw; Rate 500 g/ha, Postemergence, scale 0 to 10, 0 no effect, 10 complete control
  Bedstraw plant response rating: 7
rice; [9]
  Rice plant response rating: 0
rice; [10]
  Rice plant response rating: 0
rice; [11]
  Plant response rating, Rice: 0
rice; [12]
  Rice plant response rating: 0
blackgrass; [7]
  Blackgrass plant response rating: 8
blackgrass; [1]
  Blackgrass plant response rating: 8
blackgrass; [2]
  Blackgrass plant response rating (0 to 10 scale): 9
blackgrass; [3]
  Blackgrass plant response rating: 10
blackgrass; [4]
  Blackgrass plant response rating: 10
blackgrass; [8]
  Blackgrass plant response rating: 8
blackgrass; [5]
  Plant response rating, Blackgrass: 8
blackgrass; [6]
  Blackgrass plant response rating: 9
Purple nutsedge; [7]
  Nutsedge plant response rating: 3
Purple nutsedge; [1]
  Nutsedge plant response rating: 0
Purple nutsedge; [2]
  Nutsedge plant response rating (0 to 10 scale): 0
Purple nutsedge; [3]
  Nutsedge plant response rating: 0
Purple nutsedge; [4]
  Nutsedge plant response rating: 2
Purple nutsedge; [8]
  Nutsedge plant response rating: 2
Purple nutsedge; [5]
  Plant response rating, Nutsedge: 5
Purple nutsedge; [6]
  Nutsedge plant response rating: 5
Smallflower flatsedge; [9]
  S. Flatsedge plant response rating: 0
Smallflower flatsedge; [10]
  S. Flatsedge plant response rating: 0
Smallflower flatsedge; [11]
  Plant response rating, S. Flatsedge: 0
Smallflower flatsedge; [12]
  S. Flatsedge plant response rating: 8
pigweed; [7]
  Redroot pigweed plant response rating: 3
pigweed; [1]
  Redroot pigweed plant response rating: 10
pigweed; [2]
  Redroot pigweed plant response rating (0 to 10 scale): 10
pigweed; [3]
  Redroot pigweed plant response rating: 10
pigweed; [4]
  Redroot pigweed plant response rating: 10
pigweed; [8]
  Redroot pigweed plant response rating: 3
pigweed; [5]
  Plant response rating, Redroot pigweed: 5
pigweed; [6]
  Redroot pigweed plant response rating: 7
velvetleaf; [1]
  Velvetleaf plant response rating: 6
velvetleaf; [2]
  Velvetleaf plant response rating (0 to 10 scale): 8
velvetleaf; [3]
  Velvetleaf plant response rating: 10
velvetleaf; [4]
  Velvetleaf plant response rating: 10
velvetleaf; [8]
  Velvetleaf plant response rating: 3
velvetleaf; [5]
  Plant response rating, Velvetleaf: 3
velvetleaf; [6]
  Velvetleaf plant response rating: 5
bamyardgrass; [9]
  Barnyardgrass plant response rating: 0
bamyardgrass; [10]
  Barnyardgrass plant response rating: 0
bamyardgrass; [11]
  Plant response rating, Barnyardgrass: 0
bamyardgrass; Rate 500 g/ha, listed under Postemergence (flood test species), scale 0 to 10, 0 no effect, 10 complete control
  Barnyardgrass plant response rating: 8
Giant foxtail; [7]
  Giant foxtail plant response rating: 8
Giant foxtail; [1]
  Giant foxtail plant response rating: 9
Giant foxtail; [2]
  Giant foxtail plant response rating (0 to 10 scale): 10
Giant foxtail; [3]
  Giant foxtail plant response rating: 10
Giant foxtail; [4]
  Giant foxtail plant response rating: 10
Giant foxtail; [8]
  Giant foxtail plant response rating: 7
Giant foxtail; [5]
  Plant response rating, Giant foxtail: 8
Giant foxtail; [6]
  Giant foxtail plant response rating: 8
Sugar beet; [7]
  Sugarbeets plant response rating: 3
Sugar beet; [1]
  Sugarbeets plant response rating: 1
Sugar beet; [2]
  Sugarbeets plant response rating (0 to 10 scale): 8
Sugar beet; [3]
  Sugarbeets plant response rating: 10
Sugar beet; [4]
  Sugarbeets plant response rating: 10
Sugar beet; [8]
  Sugarbeets plant response rating: 2
Sugar beet; [5]
  Plant response rating, Sugarbeets: 3
Sugar beet; [6]
  Sugarbeets plant response rating: 3
Surinam grass; [7]
  B. signalgrass plant response rating: 4
Surinam grass; [1]
  B. signalgrass plant response rating: 4
Surinam grass; [3]
  B. signalgrass plant response rating: 5
Surinam grass; [4]
  B. signalgrass plant response rating: 7
Surinam grass; [8]
  B. signalgrass plant response rating: 3
Surinam grass; [5]
  Plant response rating, B. signalgrass: 6
Surinam grass; Rate 500 g/ha, Postemergence, scale of 0 to 10 where 0 is no effect and 10 is complete control
  B. signalgrass plant response rating: 7
